Where “and” joins values, the source holds several entries; their conditions need not be identical. Equal values may be shown once.
How the values were obtained:
LKB1-WT NSCLC cell lines = assay: Proliferation assay, panel of LKB1-WT cell lines; type: cell-based; conditions: average of four LKB1-WT cell lines, 72 h
Procedure: (§1) The indicated cell lines were treated with indicated compounds at a series of concentrations for 72 h, followed by cell proliferation assay and colony formation assay. Black dashed line indicates 50% of cell survival.
(§2) For cell proliferation assay, cells infected with lentiviruses packaged indicated plasmids were seeded indicated number cells per well in 96-well plates. Cell number (absorbance) was then estimated by the sulforhodamine B (SRB) (Sigma-Aldrich, #230162) assay and the absorbance of the individual wells was determined at the optical density of 515 nm. For colony formation assay, cells infected with lentiviruses packaged indicated plasmids were seeded indicated number cells per well in 6-well plates. Two weeks later, cells were stained with SRB and the numbers of colonies having more than 50 cells were counted.

[1] = tested on: LKB1-null NSCLC cell lines; assay: Proliferation assay, panel of five LKB1-null cell lines; type: cell-based; conditions: 72 h
Procedure: as §2
(§3) (a) Proliferation assay in LKB1-null cells (means ± SD, n=3). […] Red dashed line indicates 50% of cell survival. (b) Proliferation assay in A549 harboring LKB1-null/WT/3KR (Top) and immunoblotting analysis showing the overexpression efficiency of LKB1-WT/3KR (Bottom). […] (means ± SD, n=3). (c) Representative images of in situ TUNEL assay of cancer cells inside tumor mass with or without JOSD2 inhibitor treatment. (means ± SD, n=3). n.s: P > 0.05; *P < 0.05; **P < 0.01.

JOSD1 = JOSD1 (Homo sapiens, UniProt Q15040); assay: In vitro ubiquitin-AMC assay with GST-JOSD1; type: biochemical; conditions: incubated with GST-JOSD1 at 37 °C for 30 min
Source text: (§4) (means ± SD, n=3). […] (means ± SD, n=3). […] (means ± SD, n=3). […] (means ± SD, n=3).

Ataxin-3L = target: T1, Ataxin-3L (Homo sapiens, UniProt Q9H3M9); assay: In vitro ubiquitin-AMC assay with GST-Ataxin-3L; type: biochemical; conditions: incubated with GST-Ataxin-3L at 37 °C for 30 min
T1 sequence (Q9H3M9 1-355): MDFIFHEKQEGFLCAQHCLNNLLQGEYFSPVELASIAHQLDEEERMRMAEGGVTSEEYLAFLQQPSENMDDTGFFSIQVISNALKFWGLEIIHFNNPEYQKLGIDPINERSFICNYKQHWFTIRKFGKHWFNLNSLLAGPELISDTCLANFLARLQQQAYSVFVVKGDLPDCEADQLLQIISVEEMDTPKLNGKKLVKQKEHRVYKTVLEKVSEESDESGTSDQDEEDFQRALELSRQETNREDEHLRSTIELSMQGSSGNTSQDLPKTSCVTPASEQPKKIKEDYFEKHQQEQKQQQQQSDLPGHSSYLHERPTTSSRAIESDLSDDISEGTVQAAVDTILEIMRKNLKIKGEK
Source text: as §4

NCI-H1299 cells [2] = assay: Apoptosis, IB of cell lysates after 72 h; type: cell-based; conditions: series of concentrations
Source text: as §4

[3] = tested on: NCI-H1299 xenografted tumors; assay: Antitumor activity of HY041004 in vivo; design: species or system BALB/c-Nude mice; conditions: for Tumor Weight: at the endpoint; for T/C: RTVtreated / RTVcontrol
Procedure: as §1
Female BALB/c-Nude mice (4-5 weeks) were subcutaneously transplanted with 1 mm^3 NCI-H1299 xenograft tumor mass. […] The tumor volume was measured by a caliper every 2 days as soon as the tumor reached a palpable size. Relative tumor volume (RTV) was calculated by (RTV=TVt / TV0, where TV0 is the tumor volume measured when starting treatment). The T/C value was calculated as RTVtreated / RTVcontrol.

[4] = tested on: A549 harboring LKB1-null/WT/3KR; assay: Proliferation assay in cells harboring LKB1-null/WT/3KR; type: cell-based; conditions: series of concentrations, 72 h
Source text: as §3

NCI-H838 cells = assay: Proliferation assay in LKB1-null cells, 72 h; type: cell-based; conditions: Homo sapiens
Procedure: as §2, §3

NCI-H1395 cells = assay: Proliferation assay in LKB1-null cells, 72 h; type: cell-based; conditions: Homo sapiens
Procedure: as §2, §3

NCI-H23 cells = assay: Proliferation assay in LKB1-null cells, 72 h; type: cell-based; conditions: Homo sapiens
Procedure: as §2, §3

NCI-H460 cells = assay: Proliferation assay in LKB1-null cells, 72 h; type: cell-based; conditions: Homo sapiens
Procedure: as §2, §3

A549 cells = assay: Proliferation assay in LKB1-null cells, 72 h; type: cell-based; conditions: Homo sapiens
Procedure: as §2, §3

NCI-H292 cells = assay: Proliferation assay (SRB), 72 h; type: cell-based; conditions: Homo sapiens, LKB1-WT
Procedure: as §1, §2

PC-9 cells = assay: Proliferation assay (SRB), 72 h; type: cell-based; conditions: Homo sapiens, LKB1-WT
Procedure: as §1, §2

NCI-H1299 cells [5] = assay: Proliferation assay (SRB), 72 h; type: cell-based; conditions: Homo sapiens, LKB1-WT
Procedure: as §1, §2

NCI-H358 cells = assay: Proliferation assay (SRB), 72 h; type: cell-based; conditions: Homo sapiens, LKB1-WT
Procedure: as §1, §2

[6] = tested on: NCI-H1299 xenografted tumors; assay: TUNEL assay in xenografted tumors; type: in vivo, BALB/c-Nude mice; conditions: oral administration, in situ TUNEL
Source text: Apoptosis in xenografted tumors was detected by a TUNEL assay kit (Beyotime Biotechnology, Shanghai, China), according to the manufacturer's protocols. Images were captured by a fluorescence microscope.
as §3

Ataxin-3 = Ataxin-3 (Homo sapiens, UniProt P54252); assay: In vitro ubiquitin-AMC assay with GST-Ataxin-3; type: biochemical; conditions: incubated with GST-Ataxin-3 at 37 °C for 30 min
Source text: as §4

Chain of Ataxin-3 (P54252 whole entry): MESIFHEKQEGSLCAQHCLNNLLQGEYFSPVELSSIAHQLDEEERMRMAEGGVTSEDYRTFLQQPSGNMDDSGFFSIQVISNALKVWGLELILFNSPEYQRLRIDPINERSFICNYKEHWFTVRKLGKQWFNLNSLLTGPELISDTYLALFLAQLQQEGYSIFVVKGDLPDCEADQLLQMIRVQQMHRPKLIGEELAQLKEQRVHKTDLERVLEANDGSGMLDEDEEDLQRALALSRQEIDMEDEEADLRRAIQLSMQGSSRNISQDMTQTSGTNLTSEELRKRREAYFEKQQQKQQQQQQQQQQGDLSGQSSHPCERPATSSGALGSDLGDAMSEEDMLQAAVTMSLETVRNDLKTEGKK

- IC50 (JOSD1): 470 nM
- melting point: 172 to 174 °C
- IC50 (NCI-H838 cells): 0.72 µM
- IC50 (NCI-H1395 cells): 0.46 µM
- IC50 (NCI-H23 cells): 0.73 µM
- IC50 (NCI-H460 cells): 0.24 µM
- IC50 (A549 cells): 0.46 µM
- IC50 (NCI-H292 cells): 0.14 µM
- IC50 (PC-9 cells): 0.12 µM
- IC50 (NCI-H1299 cells [5]): 0.1 µM
- IC50 (NCI-H358 cells): 0.13 µM
SMILES: O=C1c2ccncc2C(=O)c2c1nnn2Cc1cc(F)cc(Cl)c1 [HY041004, 3-(3-chloro-5-fluorobenzyl)-3H-[1,2,3] triazolo[4,5-g]isoquinoline-4,9-dione]
- IC50 (LKB1-WT NSCLC cell lines): 0.122 µM
- IC50 ([1]; average of five LKB1-null cell lines): 0.52 µM
- Susceptibility of LKB1-null cell lines ([1]; compared with LKB1 wild-type NSCLC cell lines): less than that in LKB1 wild-type NSCLC cell lines
- IC50 (Ataxin-3L): 12800 nM
- Cell apoptosis (NCI-H1299 cells [2]): induced cell apoptosis in a concentration-dependent manner
- Tumor Weight ([3]; 50 mg/kg orally twice daily): 1.181 g and 1.18 ± 0.49 g
- T/C ([3]; 50 mg/kg orally twice daily): 64.71%
- Tumor Weight ([3]; 100 mg/kg orally twice daily): 0.901 g and 0.90 ± 0.23 g
- T/C ([3]; 100 mg/kg orally twice daily): 43.88%
- Anti-proliferative effect upon exogenous introduction of LKB1-WT, but not 3KR [4]: strengthen the anti-proliferative effect
- Intratumor cell apoptosis [6]: induced intratumor cell apoptosis
- IC50 (Ataxin-3): 5400 nM

Source: article PMC10766984, “Josephin domain containing 2 (JOSD2) promotes lung cancer by inhibiting LKB1 (Liver kinase B1) activity” (Signal Transduction and Targeted Therapy, 2024)
